Measurements as given in ChEMBL document CHEMBL4007500, “Cyclic mu-opioid receptor ligands containing multiple N-methylated amino acid residues” (Bioorg Med Chem Lett, 2017).
Calls of active or inactive are those of the source. No cut-off for these calls is given here.

Columns and labels:
Mu-type opioid receptor [1] = target: Mu-type opioid receptor (Rattus norvegicus, UniProt P33535); assay: Displacement of [3H]DAMGO from MOR in Wistar rat brain homogenates after 180 mins by liquid scintillation counting analysis
[2] = target: Delta-type opioid receptor (Rattus norvegicus, UniProt P33533); assay: Displacement of [3H][Ile5,6]deltorphin-2 from DOR in Wistar rat brain homogenates after 180 mins by liquid scintillation counting analysis
[3] = target: Kappa-type opioid receptor (Cavia porcellus, UniProt P41144); assay: Displacement of [3H]nor-BNI from KOR in Dunkin Hartley guinea pig brain homogenates after 180 mins by liquid scintillation counting analysis
[4] = Stability of compound in Wistar rat brain homogenate assessed as compound remaining at 0.5 mM after 90 mins by RP-HPLC analysis; assay type: ADME, tissue-based; details: read-out: Stability
[5] = target: Delta-type opioid receptor (Homo sapiens) (UniProt P41143); assay: Agonist activity at human recombinant DOR expressed in CHO cells assessed as calcium mobilization up to 1 uM by Fluo-4 AM based fluorescence analysis; assay type: functional, cell-based
[6] = target: Kappa-type opioid receptor (Homo sapiens) (UniProt P41145); assay: Agonist activity at human recombinant KOR expressed in CHO cells assessed as calcium mobilization up to 1 uM by Fluo-4 AM based fluorescence analysis; assay type: functional, cell-based
Mu-type opioid receptor [7] = target: T1, Mu-type opioid receptor (Homo sapiens, UniProt P35372); assay: Agonist activity at human recombinant MOR expressed in CHO cells assessed as calcium mobilization by Fluo-4 AM based fluorescence analysis; assay type: functional, cell-based
Mu-type opioid receptor [8] = target: T1, Mu-type opioid receptor; assay: Agonist activity at human recombinant MOR expressed in CHO cells assessed as calcium mobilization by Fluo-4 AM based fluorescence analysis relative to EM2; assay type: functional, cell-based

Sequence of Delta-type opioid receptor (P33533 whole entry): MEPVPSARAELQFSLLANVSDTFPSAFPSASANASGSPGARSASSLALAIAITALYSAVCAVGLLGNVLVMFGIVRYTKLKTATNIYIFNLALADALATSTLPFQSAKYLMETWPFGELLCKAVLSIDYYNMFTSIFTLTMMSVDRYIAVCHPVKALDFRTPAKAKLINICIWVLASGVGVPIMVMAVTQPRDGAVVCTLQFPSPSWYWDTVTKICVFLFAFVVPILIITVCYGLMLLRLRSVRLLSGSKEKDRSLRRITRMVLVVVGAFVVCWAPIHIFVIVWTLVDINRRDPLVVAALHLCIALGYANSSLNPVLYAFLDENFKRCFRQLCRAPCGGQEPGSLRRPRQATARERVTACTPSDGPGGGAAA
Sequence of Delta-type opioid receptor (Homo sapiens) (P41143 whole entry): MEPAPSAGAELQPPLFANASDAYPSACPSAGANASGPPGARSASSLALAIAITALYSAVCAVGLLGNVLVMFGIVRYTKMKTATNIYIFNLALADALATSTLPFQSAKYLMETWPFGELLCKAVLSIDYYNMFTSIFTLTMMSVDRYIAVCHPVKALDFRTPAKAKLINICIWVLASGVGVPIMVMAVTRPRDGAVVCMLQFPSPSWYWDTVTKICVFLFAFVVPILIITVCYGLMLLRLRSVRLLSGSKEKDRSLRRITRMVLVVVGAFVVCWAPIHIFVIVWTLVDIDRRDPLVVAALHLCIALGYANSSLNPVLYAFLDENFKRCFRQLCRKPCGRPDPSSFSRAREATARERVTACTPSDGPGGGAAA
Sequence of Kappa-type opioid receptor (P41144 whole entry): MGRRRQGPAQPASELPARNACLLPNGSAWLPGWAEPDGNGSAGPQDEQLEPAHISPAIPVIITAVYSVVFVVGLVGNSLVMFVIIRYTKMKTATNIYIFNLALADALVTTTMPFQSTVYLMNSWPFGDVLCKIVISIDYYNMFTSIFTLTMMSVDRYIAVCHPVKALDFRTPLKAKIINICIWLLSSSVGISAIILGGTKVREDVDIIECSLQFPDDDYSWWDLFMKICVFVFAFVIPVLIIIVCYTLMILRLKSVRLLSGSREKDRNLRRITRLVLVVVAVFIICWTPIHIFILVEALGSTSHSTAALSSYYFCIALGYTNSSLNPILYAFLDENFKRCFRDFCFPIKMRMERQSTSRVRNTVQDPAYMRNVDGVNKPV
Sequence of Mu-type opioid receptor (Rattus norvegicus, UniProt P33535) (P33535 whole entry): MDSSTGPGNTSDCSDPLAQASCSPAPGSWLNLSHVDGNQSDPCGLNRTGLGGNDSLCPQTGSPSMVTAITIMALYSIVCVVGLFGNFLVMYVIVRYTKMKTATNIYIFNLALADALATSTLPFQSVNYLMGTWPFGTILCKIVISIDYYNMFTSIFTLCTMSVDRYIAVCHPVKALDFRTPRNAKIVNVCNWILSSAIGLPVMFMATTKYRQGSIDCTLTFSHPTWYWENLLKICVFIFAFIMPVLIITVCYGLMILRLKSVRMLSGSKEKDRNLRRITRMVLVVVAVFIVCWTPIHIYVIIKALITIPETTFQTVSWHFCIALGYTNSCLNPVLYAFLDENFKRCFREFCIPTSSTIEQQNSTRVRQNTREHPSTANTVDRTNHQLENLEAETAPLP
T1 sequence (P35372 whole entry): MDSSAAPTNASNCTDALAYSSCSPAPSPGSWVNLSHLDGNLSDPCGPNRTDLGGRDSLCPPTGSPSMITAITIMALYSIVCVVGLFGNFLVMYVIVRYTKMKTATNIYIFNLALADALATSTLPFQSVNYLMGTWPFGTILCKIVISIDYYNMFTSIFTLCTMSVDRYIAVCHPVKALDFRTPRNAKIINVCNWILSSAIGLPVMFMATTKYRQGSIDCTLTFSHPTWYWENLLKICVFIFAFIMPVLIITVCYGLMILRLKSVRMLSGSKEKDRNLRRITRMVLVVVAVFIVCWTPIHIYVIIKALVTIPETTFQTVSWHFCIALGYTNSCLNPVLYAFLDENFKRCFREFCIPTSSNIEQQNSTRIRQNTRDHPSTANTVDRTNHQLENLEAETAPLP
Sequence of Kappa-type opioid receptor (Homo sapiens) (P41145 whole entry): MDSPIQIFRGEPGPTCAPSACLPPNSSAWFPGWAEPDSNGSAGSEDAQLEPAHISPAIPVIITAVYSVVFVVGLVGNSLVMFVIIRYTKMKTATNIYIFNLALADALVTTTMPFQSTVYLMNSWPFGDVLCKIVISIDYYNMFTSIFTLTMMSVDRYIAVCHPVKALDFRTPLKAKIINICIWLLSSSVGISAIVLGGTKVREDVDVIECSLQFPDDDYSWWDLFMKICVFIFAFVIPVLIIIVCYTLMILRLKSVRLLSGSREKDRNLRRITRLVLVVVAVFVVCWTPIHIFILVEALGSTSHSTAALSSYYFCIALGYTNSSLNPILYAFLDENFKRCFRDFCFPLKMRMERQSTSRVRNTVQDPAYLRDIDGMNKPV

| Structure (SMILES) | Ki (Mu-type opioid receptor [1]; read-out: Ki) [nM] | Ki ([2]; read-out: Ki) [nM] | Ki ([3]; read-out: Ki) [nM] | remaining at 1.5 h, 500 µM [4] [%] | Activity [5] | Activity [6] | pEC50 (Mu-type opioid receptor [7]) | Ki (Mu-type opioid receptor [1]) | Ki [2] | Ki [3] | Intrinsic activity (Mu-type opioid receptor [8]) | EC50 (Mu-type opioid receptor [7]) [nM] |
| --- | --- | --- | --- | --- | --- | --- | --- | --- | --- | --- | --- | --- |
| CN[C@@H](Cc1ccc(O)cc1)C(=O)N[C@@H]1CCCCNC(=O)C[C@@H](C(N)=O)NC(=O)[C@H](Cc2ccccc2)N(C)C(=O)CNC(=O)[C@H](Cc2ccccc2)N(C)C1=O | 76.5 | > 1000 | 519 | 97 | – | – | – | – | – | – | – | – |
| CN[C@H](Cc1ccc(O)cc1)C(=O)N[C@H]1CCCCNC(=O)C[C@@H](C(N)=O)NC(=O)[C@H](Cc2ccccc2)N(C)C(=O)CNC(=O)[C@H](Cc2ccccc2)N(C)C1=O | – | – | – | – | inactive | inactive | inactive | – | – | – | – | – |
| CN[C@@H](Cc1ccc(O)cc1)C(=O)N[C@@H]1CCCCNC(=O)C[C@@H](C(N)=O)NC(=O)[C@H](Cc2ccccc2)N(C)C(=O)[C@H](Cc2ccccc2)N(C)C1=O | – | – | – | 96.9 | – | – | – | Nd(Insoluble) | Nd(Insoluble) | Nd(Insoluble) | – | – |
| CN[C@@H](Cc1ccc(O)cc1)C(=O)N[C@@H]1CCCCNC(=O)C[C@@H](C(N)=O)NC(=O)[C@H](Cc2ccccc2)N(C)C(=O)[C@H](Cc2ccccc2)NC1=O | 0.73 | > 1000 | > 1000 | 97.2 | inactive | inactive | – | – | – | – | 0.93 | 10.2 |
| CN[C@@H](Cc1ccc(O)cc1)C(=O)N[C@@H]1CCCCNC(=O)C[C@@H](C(N)=O)NC(=O)CNC(=O)[C@H](Cc2ccccc2)N(C)C(=O)[C@H](Cc2ccccc2)N(C)C(=O)CNC1=O | 106 | > 1000 | > 1000 | 97.4 | inactive | inactive | inactive | – | – | – | – | – |
